Each block holds one compound with its values, some of them ahead of it. Square brackets hold non-standard residues; d marks the D form. Ends that are not written are not given here. pY = N[C@@H](Cc1ccc(OP(=O)(O)O)cc1)C(=O)O
Tests used:
Stat91-DNA complex = biological target: T1, Stat91-DNA complex (Homo sapiens, UniProt P42224); test: Formation of Stat91-DNA complex in the presence of phosphoamino acids; format: biochemical; conditions: 10 mM
T1 sequence (P42224 1-750): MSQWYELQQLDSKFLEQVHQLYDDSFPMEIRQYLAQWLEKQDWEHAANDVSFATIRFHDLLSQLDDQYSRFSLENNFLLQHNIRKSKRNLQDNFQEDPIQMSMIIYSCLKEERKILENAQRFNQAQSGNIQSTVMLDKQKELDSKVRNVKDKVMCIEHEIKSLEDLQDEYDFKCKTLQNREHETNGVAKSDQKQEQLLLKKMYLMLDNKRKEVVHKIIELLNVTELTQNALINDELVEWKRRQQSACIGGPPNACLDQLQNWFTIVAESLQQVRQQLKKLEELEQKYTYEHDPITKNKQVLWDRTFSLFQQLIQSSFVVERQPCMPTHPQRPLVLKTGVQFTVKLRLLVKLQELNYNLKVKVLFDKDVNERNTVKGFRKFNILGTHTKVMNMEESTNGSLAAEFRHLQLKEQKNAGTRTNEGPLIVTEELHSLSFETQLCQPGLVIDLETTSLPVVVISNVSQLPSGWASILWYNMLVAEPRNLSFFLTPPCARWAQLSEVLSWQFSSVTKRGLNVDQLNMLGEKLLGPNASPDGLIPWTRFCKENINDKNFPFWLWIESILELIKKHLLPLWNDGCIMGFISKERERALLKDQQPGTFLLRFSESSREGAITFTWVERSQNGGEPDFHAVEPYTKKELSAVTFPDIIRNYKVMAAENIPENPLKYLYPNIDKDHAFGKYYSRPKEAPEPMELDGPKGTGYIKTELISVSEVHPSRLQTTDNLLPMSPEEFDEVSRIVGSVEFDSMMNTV
Experimental: (§1) Gel Mobility Shift Assays. Gel mobility shift assays were carried out as described (34). An oligonucleotide corresponding to the GAS element from the human FcγRI receptor gene (Pearse et al. 1993) was synthesized and used for gel mobility shift assays. The oligonucleotide has the following sequence: 5′[…]3′ (SEQ. ID NO:17).
The Stat91 sequence contains an SH2 domain (amino acids 569 to 700, see discussion below), and we knew that Tyr-701 was the single phosphorylated tyrosine residue required for DNA binding activity (supra, 45). […] We therefore sought evidence that the dimerization of Stat91 involved specific SH2-phosphotyrosine interaction using the dissociation and reassociation assay.

[1] = tested on: ISGF-3 formation / IFN-α induced transcription; conditions: cited from earlier work
[2] = tested on: Stat84 and Stat91L homodimers; test: Dissociation-reassociation analysis (gel mobility shift with GAS probe); format: biochemical, human; conditions: for dissociation of the dimers and block of formation of DNA protein complexes: peptide 160 μM
Experimental: as §1
Dissociation-reassociation Analysis. Extracts were incubated with various concentrations of peptides or fusion proteins, and ^32P-labeled GAS oligonucleotide probe in gel shift buffer was then added to promote the formation of protein-DNA complex followed by mobility shift analysis.
Dimerization of Stat91 Involves Phosphoryrosyl Peptide and SH2 Interactions. Based on the results described above, we devised a dissociation-reassociation assay in the absence of guanidium hydrochloride to explore the possible nature of interactions involved in dimer formation (FIG. 20). When the short and the long forms of a homodimer are mixed with a dissociating agent (e.g., a peptide containing the putative dimerization domain), the subunits of the dimer should dissociate (in a concentration dependent fashion) due to the interaction of the agent with the dimerization domain(s) of the protein. When a specific DNA probe is subsequently added to the mixture to drive the formation of a stable protein-DNA complex, the detection of any reassociated or remaining dimers can be assayed. In the presence of low concentration of the dissociating agent, addition of DNA to form the stable protein-DNA complex should lead to the detection of homodimers as well as heterodimers. At high concentration of the dissociating agent, subunits of the dimer may not be able to re-form and no DNA-protein complexes would be detected (FIG. 20).

prevention of formation of Stat91-DNA complex (Stat91-DNA complex): not
Compound: N[C@@H](COP(=O)(O)O)C(=O)O [phosphoserine]

prevention of formation of Stat91-DNA complex (Stat91-DNA complex): not
Compound: C[C@@H](OP(=O)(O)O)[C@H](N)C(=O)O [phosphothreonine]

prevention of formation of Stat91-DNA complex (Stat91-DNA complex): could prevent the formation
Compound: N[C@@H](Cc1ccc(OP(=O)(O)O)cc1)C(=O)O [phosphotyrosine]

Compound: CN[C@@H]1C[C@H]2O[C@@](C)([C@@H]1OC)n1c3ccccc3c3c4c(c5c6ccccc6n2c5c31)C(=O)NC4 [staurosporine]
IFN-α induction of ISGF-3 formation [1]: blocks | IFN-α induction of transcription [1]: blocks

Compound: EPQY*EEIPIYL (EPQ[pY]EEIPIYL) [SrcY-p, reference compound]
effect on Stat91 dimer formation ([2]; FIG. 21 lanes 11-13 (4, 40, 160 μM)): no effect

Compound: GY*IKTE (G[pY]IKTE) [91Y-p]
exchange between the subunits of Stat84 dimers and Stat91L dimers to form heterodimers ([2]; peptide 4 μM, extracts of IFN-γ-treated C84 and C91L cells): clearly promoted the exchange | dissociation of the dimers and block of formation of DNA protein complexes [2]: dissociated the dimers and blocked the formation of DNA protein complexes

Compound: KVNLQERRKY*LKHR (KVNLQERRK[pY]LKHR) [113Y-p]
exchange of subunits between Stat84 and Stat91L ([2]; at concentrations similar to 91Y-p): promoted the exchange of subunits | prevention of the gel shift bands ([2]; peptide 40 μM): prevented the gel shift bands almost completely

Compound: LDGPKGTGYIKTELI [91Y]
dissociation of the dimers and block of formation of DNA protein complexes [2]: not | effect on the two gel shift bands characteristic of Stat84 or Stat91L homodimers ([2]; various concentrations of peptide (4, 40, 160 μM)): no effect
